Measurements published in patent US20240025883A1, “PYRIMIDIN-2-YL SULFONAMIDE DERIVATIVES” (Hoffmann-La Roche Inc., priority 2021, published 2024).

Molecular target: human GPR17 short isoform (Homo sapiens (Human), UniProt Q13304)
Test: GPR17 cAMP assay (hGPR17 cAMP, antagonist mode against EC80 of MDL29,951)
Format: cell-based
Conditions: CHO-K1 cells stably expressing human GPR17 short isoform; EC80 of agonist MDL29,951; forskolin 15 μM
Outline: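 cAMP was read by competitive TR-FRET after a 30 min room-temperature stimulation: antagonists plus EC80 MDL29,951 and 0.5 mM IBMX, followed 5 min later by 15 μM forskolin. Cells were CHO-K1 with stable human GPR17 short isoform in HBSS/HEPES/BSA, pH 7.4; percent activity versus reference antagonist fitted sigmoidally.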

human GPR17 short isoform, sequence (Q13304 29-367): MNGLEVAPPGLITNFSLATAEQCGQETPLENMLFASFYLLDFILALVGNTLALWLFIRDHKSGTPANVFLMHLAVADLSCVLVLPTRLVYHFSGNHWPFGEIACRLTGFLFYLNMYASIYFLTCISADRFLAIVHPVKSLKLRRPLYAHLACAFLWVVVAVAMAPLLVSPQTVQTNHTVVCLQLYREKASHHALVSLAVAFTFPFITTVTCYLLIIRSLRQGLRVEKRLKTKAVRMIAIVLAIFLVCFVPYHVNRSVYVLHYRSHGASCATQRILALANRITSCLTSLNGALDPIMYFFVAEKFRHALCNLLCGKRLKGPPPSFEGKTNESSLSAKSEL

Row | IC50 [nM] | SMILES
1 | 34 | COc1nc(NS(=O)(=O)c2c[nH]c3c(F)c(Cl)ccc23)ncc1CC(F)F [Example 124, 6-chloro-N-[5-(2,2-difluoroethyl)-4-methoxy-pyrimidin-2-yl]-7-fluoro-1H-indole-3-sulfonamide]
2 | 131 | COc1nc(NS(=O)(=O)c2c[nH]c3cc(Cl)ccc23)ncc1OC(F)(F)C(F)Cl (centres unmarked) [Example 44, 6-chloro-N-[5-(2-chloro-1,1,2-trifluoro-ethoxy)-4-methoxy-pyrimidin-2-yl]-1H-indole-3-sulfonamide]
3 | 162 | COc1nc(NS(=O)(=O)c2c[nH]c3cc(Cl)ccc23)ncc1CC(F)(F)F [Example 177, 6-chloro-N-[4-methoxy-5-(2,2,2-trifluoroethyl)pyrimidin-2-yl]-1H-indole-3-sulfonamide]
4 | 386 | COc1nc(NS(=O)(=O)c2c[nH]c3c(Cl)c(F)ccc23)ncc1CC(F)F [Example 130, 7-chloro-N-[5-(2,2-difluoroethyl)-4-methoxy-pyrimidin-2-yl]-6-fluoro-1H-indole-3-sulfonamide]
5 | 40 | COc1nc(NS(=O)(=O)c2c[nH]c3cc(Cl)ccc23)ncc1COC(F)F [Example 262, 6-chloro-N-[5-(difluoromethoxymethyl)-4-methoxy-pyrimidin-2-yl]-1H-indole-3-sulfonamide]
6 | 19 | COc1nc(NS(=O)(=O)c2c[nH]c3cc(Cl)ccc23)nc(OC)c1C [Example 17, 6-chloro-N-(4,6-dimethoxy-5-methyl-pyrimidin-2-yl)-1H-indole-3-sulfonamide]
7 | 26 | COc1nc(NS(=O)(=O)c2c[nH]c3cc(Cl)ccc23)ncc1CCC(F)F [Example 48, 6-chloro-N-[5-(3,3-difluoropropyl)-4-methoxy-pyrimidin-2-yl]-1H-indole-3-sulfonamide]
8 | 946 | COc1nc(NS(=O)(=O)c2c[nH]c3cc(Cl)ccc23)nc(Cl)c1OC [Example 75, 6-chloro-N-(4-chloro-5,6-dimethoxy-pyrimidin-2-yl)-1H-indole-3-sulfonamide]
9 | 91 | COc1nc(NS(=O)(=O)c2c[nH]c3cc(Cl)ccc23)nc(OC)c1Cl [Example 11, 6-chloro-N-(5-chloro-4,6-dimethoxy-pyrimidin-2-yl)-1H-indole-3-sulfonamide]
10 | 642 | COc1nc(NS(=O)(=O)c2c[nH]c3c(Cl)cccc23)ncc1CC(F)F [Example 108, 7-chloro-N-[5-(2,2-difluoroethyl)-4-methoxy-pyrimidin-2-yl]-1H-indole-3-sulfonamide]
11 | 91 | COc1nc(NS(=O)(=O)c2c[nH]c3cc(Cl)ccc23)ncc1CC(F)(F)C(F)F [Example 261, 6-chloro-N-[4-methoxy-5-(2,2,3,3-tetrafluoropropyl)pyrimidin-2-yl]-1H-indole-3-sulfonamide]
12 | 21 | COc1nc(NS(=O)(=O)c2c[nH]c3cc(Cl)ccc23)ncc1OC(F)(F)CF [Example 41, 6-chloro-N-[4-methoxy-5-(1,1,2-trifluoroethoxy)pyrimidin-2-yl]-1H-indole-3-sulfonamide]
13 | 918 | COc1nc(NS(=O)(=O)c2c[nH]c3cc(Cl)ccc23)ncc1CC1CC1 [Example 46, 6-chloro-N-[5-(cyclopropylmethyl)-4-methoxy-pyrimidin-2-yl]-1H-indole-3-sulfonamide]
14 | 101 | COc1nc(NS(=O)(=O)c2c[nH]c3cc(C)ccc23)ncc1CC(F)F [Example 182, N-[5-(2,2-difluoroethyl)-4-methoxy-pyrimidin-2-yl]-6-methyl-1H-indole-3-sulfonamide]
15 | 287 | COc1nc(NS(=O)(=O)c2c[nH]c3cc(Cl)ccc23)ncc1OCCC(F)F [Example 39, 6-chloro-N-[5-(3,3-difluoropropoxy)-4-methoxy-pyrimidin-2-yl]-1H-indole-3-sulfonamide]

Second part, the compound before the results:

Row | SMILES | IC50 [nM]
16 | COc1nc(NS(=O)(=O)c2c[nH]c3nc(Br)ccc23)nc(OC)c1CC(F)F [Example 111, 6-bromo-N-[5-(2,2-difluoroethyl)-4,6-dimethoxy-pyrimidin-2-yl]-1H-pyrrolo[2,3-b]pyridine-3-sulfonamide] | 13
17 | COc1nc(NS(=O)(=O)c2csc3nc(Cl)ccc23)ncc1OCCF [Example 27, 6-chloro-N-[5-(2-fluoroethoxy)-4-methoxy-pyrimidin-2-yl]thieno[2,3-b]pyridine-3-sulfonamide] | 83
18 | COc1nc(NS(=O)(=O)c2c[nH]c3c2ccc2cccnc23)nc(OC)c1OCCF [Example 117, N-[5-(2-fluoroethoxy)-4,6-dimethoxy-pyrimidin-2-yl]-1H-pyrrolo[3,2-h]quinoline-3-sulfonamide] | 30
19 | COc1nc(NS(=O)(=O)c2c[nH]c3cc(Br)ccc23)ncc1OCC(F)F [Example 143, 6-bromo-N-[5-(2,2-difluoroethoxy)-4-methoxy-pyrimidin-2-yl]-1H-indole-3-sulfonamide] | 109
20 | COc1nc(NS(=O)(=O)c2c[nH]c3nc(Br)ccc23)nc(OC)c1CCC(F)F [Example 112, 6-bromo-N-[5-(3,3-difluoropropyl)-4,6-dimethoxy-pyrimidin-2-yl]-1H-pyrrolo[2,3-b]pyridine-3-sulfonamide] | 16
21 | COc1nc(NS(=O)(=O)c2csc3cc(Br)ccc23)ncc1OCCF [Example 158, 6-bromo-N-[5-(2-fluoroethoxy)-4-methoxy-pyrimidin-2-yl]benzothiophene-3-sulfonamide] | 47
22 | COc1nc(NS(=O)(=O)c2c[nH]c3c(F)c(Cl)ccc23)nc(OC)c1CCC#N [Example 218, 6-chloro-N-[5-(2-cyanoethyl)-4,6-dimethoxy-pyrimidin-2-yl]-7-fluoro-1H-indole-3-sulfonamide] | 14
23 | COc1nc(NS(=O)(=O)c2c[nH]c3nc(Cl)ccc23)nc(OC)c1CC(F)CF (centres unmarked) [Example 289, 6-Chloro-N-[5-(2,3-Difluoropropyl)-4,6-Dimethoxy-Pyrimidin-2-Yl]-1H-Pyrrolo[2,3-b]Pyridine-3-Sulfonamide] | 69
24 | COc1nc(NS(=O)(=O)c2c[nH]c3cc(Cl)ccc23)nc(OC)c1CCS(C)(=O)=O [Example 281, 6-Chloro-N-[4,6-Dimethoxy-5-(2-Methylsulfonylethyl)Pyrimidin-2-Yl]-1H-Indole-3-Sulfonamide] | 237
25 | COc1nc(NS(=O)(=O)c2c[nH]c3c(F)c(Br)ccc23)nc(OC)c1OCC(F)F [Example 242, 6-bromo-N-[5-(2,2-difluoroethoxy)-4,6-dimethoxy-pyrimidin-2-yl]-7-fluoro-1H-indole-3-sulfonamide] | 43
26 | COc1nc(NS(=O)(=O)c2c[nH]c3nc(Br)ccc23)nc(OC)c1OC(F)F [Example 172, 6-bromo-N-[5-(difluoromethoxy)-4,6-dimethoxy-pyrimidin-2-yl]-1h-pyrrolo[2,3-b]pyridine-3-sulfonamide] | 15
27 | COc1nc(NS(=O)(=O)c2c[nH]c3c(F)c(C(F)F)ccc23)ncc1CC(F)F [Example 248, N-[5-(2,2-difluoroethyl)-4-methoxy-pyrimidin-2-yl]-6-(difluoromethyl)-7-fluoro-1H-indole-3-sulfonamide] | 367
28 | COc1nc(NS(=O)(=O)c2c[nH]c3c(Br)c(Cl)ccc23)ncc1CC(F)F [Example 142, 7-bromo-6-chloro-N-[5-(2,2-difluoroethyl)-4-methoxy-pyrimidin-2-yl]-1H-indole-3-sulfonamide] | 29
29 | COc1nc(NS(=O)(=O)c2c[nH]c3nc(C(F)F)ccc23)nc(OC)c1CC(F)F [Example 194, N-[5-(2,2-difluoroethyl)-4,6-dimethoxy-pyrimidin-2-yl]-6-(difluoromethyl)-1H-pyrrolo[2,3-b]pyridine-3-sulfonamide] | 25
30 | COc1nc(NS(=O)(=O)c2c[nH]c3c(F)c(Cl)ccc23)ncc1CCC#N [Example 216, 6-chloro-N-[5-(2-cyanoethyl)-4-methoxy-pyrimidin-2-yl]-7-fluoro-1H-indole-3-sulfonamide] | 43
31 | COc1nc(NS(=O)(=O)c2c[nH]c3cc(Cl)ccc23)nc(OC)c1C1CC1 [Example 69, 6-chloro-N-(5-cyclopropyl-4,6-dimethoxy-pyrimidin-2-yl)-1H-indole-3-sulfonamide] | 14
32 | COc1nc(NS(=O)(=O)c2c[nH]c3c(OC)c(Cl)ccc23)ncc1CC(F)F [Example 186, 6-chloro-N-[5-(2,2-difluoroethyl)-4-methoxy-pyrimidin-2-yl]-7-methoxy-1H-indole-3-sulfonamide] | 13
33 | COc1nc(NS(=O)(=O)c2c[nH]c3c(SC(F)F)c(Cl)ccc23)ncc1CCC#N [Example 105, 6-chloro-N-[5-(2-cyanoethyl)-4-methoxy-pyrimidin-2-yl]-7-(difluoromethylthio)-1H-indole-3-sulfonamide] | 14
34 | COc1nc(NS(=O)(=O)c2c[nH]c3c(F)c(C(F)F)ccc23)nc(OC)c1OCC#N [Example 253, N-[5-(cyanomethoxy)-4,6-dimethoxy-pyrimidin-2-yl]-6-(difluoromethyl)-7-fluoro-1H-indole-3-sulfonamide] | 20
35 | COc1nc(NS(=O)(=O)c2c[nH]c3c(Br)c(Cl)ccc23)ncc1CCC#N [Example 255, 7-bromo-6-chloro-N-[5-(2-cyanoethyl)-4-methoxy-pyrimidin-2-yl]-1H-indole-3-sulfonamide] | 38
36 | COCc1c(OC)nc(NS(=O)(=O)c2c[nH]c3cc(Cl)ccc23)nc1OC [Example 65, 6-chloro-N-[4,6-dimethoxy-5-(methoxymethyl)pyrimidin-2-yl]-1H-indole-3-sulfonamide] | 61
37 | COc1nc(NS(=O)(=O)c2csc3cc(Cl)ccc23)ncc1CCC#N [Example 156, 6-chloro-N-[5-(2-cyanoethyl)-4-methoxy-pyrimidin-2-yl]benzothiophene-3-sulfonamide] | 92
38 | COc1nc(NS(=O)(=O)c2c[nH]c3nc(Br)ccc23)ncc1OCCF [Example 230, 6-bromo-N-[5-(2-fluoroethoxy)-4-methoxy-pyrimidin-2-yl]-1H-pyrrolo[2,3-b]pyridine-3-sulfonamide] | 41
